Source: ChEMBL document CHEMBL1201862, “PubChem BioAssay data set” (2004)
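Each compound was tested at five concentrations against cells in 96-well plates for 48 hours. GI50 is the concentration that inhibits growth by half.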 The source made the active and inactive calls. No stated cut-off is given here; in the data, active = GI50 up to about 1.1 µM and inactive = higher.

What was measured:
Test in all cases: inhibition of tumour cell growth, NCI panel, 48 h
786-0 = test system: 786-0
A498 = test system: A498
BT-549 = test system: BT-549
CCRF-CEM = test system: CCRF-CEM
DU-145 = test system: DU-145
EKVX = test system: EKVX
HOP-62 = test system: HOP-62
Hs-578T = test system: Hs-578T
MDA-N = test system: MDA-N
MOLT-4 = test system: MOLT-4
Malme-3M = test system: Malme-3M
NCI-H522 = test system: NCI-H522
NCI/ADR-RES = test system: NCI/ADR-RES
RPMI-8226 = test system: RPMI-8226
RXF 393 = test system: RXF 393
SF-295 = test system: SF-295
SK-MEL-5 = test system: SK-MEL-5
SN12C = test system: SN12C
SNB-19 = test system: SNB-19

Measured: GI50

Cc1ccnc(NC(=S)Nc2ccccc2Cl)c1
active: NCI-H522 0.131 µM
inactive: 786-0 > 100 µM | A498 > 100 µM | BT-549 > 100 µM | CCRF-CEM > 100 µM | DU-145 > 100 µM | EKVX 40.1 µM | HOP-62 34.7 µM | Hs-578T 44.7 µM | MDA-N > 100 µM | MOLT-4 > 100 µM | Malme-3M 53.5 µM | NCI/ADR-RES > 100 µM | RPMI-8226 > 100 µM | RXF 393 > 100 µM | SF-295 87.7 µM | SK-MEL-5 > 100 µM | SN12C > 100 µM | SNB-19 > 100 µM

O=C(O)CCS/C(=C\C(SCCC(=O)O)c1ccc(Cl)cc1)c1ccc(Cl)cc1 (configuration not stated)
inactive: 786-0 78.9 µM | A498 19.7 µM | BT-549 30.5 µM | CCRF-CEM 30.1 µM | DU-145 57.9 µM | EKVX 62.5 µM | HOP-62 37.5 µM | Hs-578T 63.5 µM | MDA-N 36.6 µM | MOLT-4 37.2 µM | Malme-3M 76.4 µM | NCI-H522 33.5 µM | NCI/ADR-RES > 100 µM | RPMI-8226 31 µM | RXF 393 39.7 µM | SF-295 33.4 µM | SK-MEL-5 48.3 µM | SN12C 50 µM | SNB-19 40.7 µM

NC(CO)C(=O)NCC(=O)O (configuration not stated)
inactive: 786-0 > 100 µM | A498 > 100 µM | BT-549 > 100 µM | CCRF-CEM > 100 µM | DU-145 > 100 µM | EKVX > 100 µM | HOP-62 > 100 µM | Hs-578T > 100 µM | MDA-N > 100 µM | MOLT-4 > 100 µM | Malme-3M > 100 µM | NCI-H522 > 100 µM | NCI/ADR-RES > 100 µM | RPMI-8226 > 100 µM | RXF 393 > 100 µM | SF-295 > 100 µM | SK-MEL-5 > 100 µM | SN12C > 100 µM | SNB-19 > 100 µM

O=C(Nc1ccccc1)N1CC(CN2CCN(c3ccccc3)CC2)OC1=O (configuration not stated)
inactive: 786-0 > 100 µM | A498 > 100 µM | BT-549 > 100 µM | CCRF-CEM > 100 µM | DU-145 > 100 µM | EKVX > 100 µM | HOP-62 > 100 µM | Hs-578T 67 µM | MDA-N > 100 µM | MOLT-4 > 100 µM | Malme-3M > 100 µM | NCI-H522 80.9 µM | NCI/ADR-RES > 100 µM | RPMI-8226 > 100 µM | RXF 393 > 100 µM | SF-295 > 100 µM | SK-MEL-5 > 100 µM | SN12C > 100 µM | SNB-19 > 100 µM

CN(C)/C=C/c1nnnn1-c1ccc(I)cc1
inactive: 786-0 35.1 µM | A498 40.8 µM | BT-549 22.8 µM | CCRF-CEM 10.6 µM | DU-145 28.2 µM | EKVX 21.6 µM | HOP-62 31.8 µM | Hs-578T 13.6 µM | MDA-N 22.4 µM | MOLT-4 15.1 µM | Malme-3M 21 µM | NCI-H522 25.5 µM | NCI/ADR-RES 23.8 µM | RPMI-8226 12.8 µM | RXF 393 28 µM | SF-295 25.8 µM | SK-MEL-5 16.6 µM | SN12C 14.9 µM | SNB-19 20.3 µM

CSc1c(C#N)c(=O)n(N)c2[nH]nc(C)c12
inactive: 786-0 > 100 µM | A498 91.6 µM | BT-549 > 100 µM | CCRF-CEM > 100 µM | DU-145 > 100 µM | EKVX > 100 µM | Hs-578T > 100 µM | MDA-N > 100 µM | MOLT-4 > 100 µM | Malme-3M > 100 µM | NCI-H522 > 100 µM | NCI/ADR-RES > 100 µM | RPMI-8226 > 100 µM | RXF 393 > 100 µM | SK-MEL-5 > 100 µM | SN12C > 100 µM | SNB-19 > 100 µM

CCCCCC(/C=C/[C@@H]1CC(=O)C[C@H]1O[Si](C)(C)C(C)(C)C)OCOCCOC (some centres not stated)
inactive: 786-0 3.74 µM | A498 11.9 µM | BT-549 3.26 µM | CCRF-CEM > 100 µM | DU-145 16.3 µM | EKVX 6.31 µM | HOP-62 15.5 µM | Hs-578T 2.9 µM | MDA-N 3.41 µM | MOLT-4 1.75 µM | Malme-3M 2.35 µM | NCI-H522 1.93 µM | NCI/ADR-RES 2.94 µM | RPMI-8226 2.61 µM | RXF 393 2.24 µM | SF-295 11 µM | SK-MEL-5 3.33 µM | SN12C 8.43 µM | SNB-19 4.52 µM

CC[C@@H]1CC[C@@H]2[C@H](CC[C@]3(C)[C@@H](OC(C)=O)CC[C@@H]23)[C@H]1COC(C)=O
inactive: 786-0 45.1 µM | A498 26 µM | BT-549 32.1 µM | CCRF-CEM 20 µM | DU-145 > 100 µM | EKVX 31.6 µM | HOP-62 30.4 µM | Hs-578T 25.1 µM | MDA-N 24.9 µM | MOLT-4 16 µM | Malme-3M 18.4 µM | NCI-H522 23.1 µM | NCI/ADR-RES 26.7 µM | RPMI-8226 25.6 µM | RXF 393 22.6 µM | SF-295 25.2 µM | SK-MEL-5 18.3 µM | SN12C 22.9 µM | SNB-19 36.9 µM

O=c1c2cccnc2[nH]c2ccc3cn[nH]c3c12
inactive: 786-0 > 10 µM | A498 > 10 µM | BT-549 > 10 µM | CCRF-CEM 6.15 µM | DU-145 > 10 µM | EKVX 3.48 µM | HOP-62 > 10 µM | Hs-578T 6.21 µM | MDA-N > 10 µM | MOLT-4 > 10 µM | Malme-3M > 10 µM | NCI-H522 > 10 µM | NCI/ADR-RES > 10 µM | RPMI-8226 > 10 µM | RXF 393 2.15 µM | SF-295 > 10 µM | SK-MEL-5 > 10 µM | SN12C 9.06 µM | SNB-19 > 10 µM

COc1ccc(C(=O)N=C2N(c3ccccc3)C(=N/c3ccccc3)/C(=N\c3ccccc3)N2c2ccccc2)cc1
inactive: 786-0 17.9 µM | A498 19.2 µM | BT-549 13.2 µM | CCRF-CEM > 100 µM | DU-145 > 100 µM | EKVX 48.8 µM | HOP-62 8.63 µM | Hs-578T 7.78 µM | MDA-N 19.2 µM | MOLT-4 > 100 µM | Malme-3M 20.6 µM | NCI-H522 30.7 µM | NCI/ADR-RES > 100 µM | RPMI-8226 > 74.6 µM | RXF 393 2.26 µM | SF-295 33.3 µM | SK-MEL-5 23.2 µM | SN12C > 67.1 µM | SNB-19 19.2 µM

O=[N+]([O-])C(=C/c1cccc2ccccc12)/C(=C\c1cccc2ccccc12)[N+](=O)[O-]
active: CCRF-CEM 0.528 µM | MOLT-4 0.984 µM
inactive: 786-0 1.77 µM | A498 19.3 µM | BT-549 2.05 µM | DU-145 2.84 µM | EKVX 3.4 µM | HOP-62 2.74 µM | Hs-578T 3.01 µM | MDA-N 2.62 µM | Malme-3M 2.07 µM | NCI-H522 1.37 µM | NCI/ADR-RES 2.51 µM | RPMI-8226 2.56 µM | RXF 393 1.99 µM | SF-295 2.58 µM | SK-MEL-5 2.9 µM | SN12C 2.34 µM | SNB-19 4.51 µM
